Source: US20100221719A1, “Probes for detecting protein nuclear transport and method for detecting and quantifying protein nuclear transport using the same” (priority 2004, published 2010)

Assays:
[1] = tested on: Sterol Regulatory Element-Binding Proten-2 (SREBP-2); experiment: Confirmation of SREBP-2 localization in COS-7 cells transfected with pcDRc-SREBP; assay type: cell-based; details: in the presence of cholesterol, FIG. 18
From the text: Plasmid pcDRc-AR in Examples 1 to 6 was cleaved with restriction endonucleases NotI and XhoI to remove the cDNA encoding AR, and a cDNA encoding SREBP-2 was inserted at NotI and XhoI sites thereby constructing pcDRc-SREBP (FIG. 17).

[2] = tested on: Sterol Regulatory Element-Binding Proten-2 (SREBP-2); experiment: Quantification of SREBP-2 translocation into the nucleus (reconstituted RLuc luminescence, COS-7 cells); assay type: cell-based; details: different concentrations of cholesterol, FIG. 19
Method: Translocation of SERPB-2 into the nucleus was qualified in the same manner as in Example 7. COS-7 cells were cotransfected with pcRDn-NLS and pcDRc-SREBP, and different concentrations of cholesterol were added to each microtiter well. The cells were harvested, and their lysates were mixed with a coelenterazine solution.

androgen receptor (AR) [3] = target: T1, androgen receptor (AR) (Homo sapiens, UniProt P10275); experiment: Cell-based in vitro assay of AR translocation into the nucleus (reconstituted RLuc luminescence, COS-7 cells)
T1 construct: DnaE-C (C-terminal splicing domain of DnaE intein) (N); expressed in transfected cells; host or cells: COS-7
T1 sequence (P10275 1-920): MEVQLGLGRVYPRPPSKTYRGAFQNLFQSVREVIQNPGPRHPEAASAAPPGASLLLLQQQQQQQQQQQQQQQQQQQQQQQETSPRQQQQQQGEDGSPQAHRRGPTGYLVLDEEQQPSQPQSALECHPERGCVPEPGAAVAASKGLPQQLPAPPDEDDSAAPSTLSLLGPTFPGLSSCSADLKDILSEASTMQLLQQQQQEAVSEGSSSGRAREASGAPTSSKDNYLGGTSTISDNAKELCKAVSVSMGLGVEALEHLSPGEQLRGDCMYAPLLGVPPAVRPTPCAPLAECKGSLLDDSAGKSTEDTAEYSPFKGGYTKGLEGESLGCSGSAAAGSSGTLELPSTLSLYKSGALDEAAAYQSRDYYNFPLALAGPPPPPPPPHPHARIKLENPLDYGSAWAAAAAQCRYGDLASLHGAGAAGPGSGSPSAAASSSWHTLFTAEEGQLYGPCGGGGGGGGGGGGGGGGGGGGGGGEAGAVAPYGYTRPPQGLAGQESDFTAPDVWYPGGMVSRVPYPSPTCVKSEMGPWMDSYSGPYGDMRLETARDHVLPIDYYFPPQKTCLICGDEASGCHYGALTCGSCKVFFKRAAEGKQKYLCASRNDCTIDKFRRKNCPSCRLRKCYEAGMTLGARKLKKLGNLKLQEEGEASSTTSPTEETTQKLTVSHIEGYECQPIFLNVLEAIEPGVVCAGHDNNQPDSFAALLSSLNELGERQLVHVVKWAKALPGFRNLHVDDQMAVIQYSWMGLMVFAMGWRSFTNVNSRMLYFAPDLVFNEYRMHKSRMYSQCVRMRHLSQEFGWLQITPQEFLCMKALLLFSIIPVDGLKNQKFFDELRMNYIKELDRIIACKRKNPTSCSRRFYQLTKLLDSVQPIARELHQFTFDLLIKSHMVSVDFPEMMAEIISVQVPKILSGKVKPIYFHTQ
Method: COS-7 cells were cotransfected with the plasmids and incubated for 12 h. The medium was replaced with DMEM supplemented with 10% FBS, and 24 h after the replacement, steroid hormones or synthetic chemicals were added to each well.
After the COS-7 cells were extensively incubated for 2 hours, the cells were harvested, and luciferase activity was evaluated by using the Renilla luciferase assay kit (Promega) with a luminometer (Minilumat LB9506; Berthold, GmbH) with an integration time of 20 sec.
The cells were harvested, and their lysates were mixed with a coelenterazine solution.

androgen receptor (AR) [4] = target: T1, androgen receptor (AR); experiment: In vivo imaging of AR nuclear import in mouse brain with implanted cotransfected COS-7 cells; details: inhibitor 10 mg/kg i.p. plus DHT, average from three mice
Method: Two hours after injection, 10 μl of coelenterazine (0.14 mg/kg of body weight) was injected intracerebrally in the mice, and representatives from each mouse group (n=3) were imaged in 2-min intervals.

[5] = target: T2, glucocorticoid receptor (GR) (Homo sapiens, UniProt P04150); experiment: Quantification of GR translocation into the nucleus (reconstituted RLuc luminescence, NIH3T3 cells); assay type: cell-based
T2 construct: DnaE-C (C-terminal splicing domain of DnaE intein) (N); expressed in transfected cells; host or cells: NIH3T3
T2 sequence (P04150 1-777): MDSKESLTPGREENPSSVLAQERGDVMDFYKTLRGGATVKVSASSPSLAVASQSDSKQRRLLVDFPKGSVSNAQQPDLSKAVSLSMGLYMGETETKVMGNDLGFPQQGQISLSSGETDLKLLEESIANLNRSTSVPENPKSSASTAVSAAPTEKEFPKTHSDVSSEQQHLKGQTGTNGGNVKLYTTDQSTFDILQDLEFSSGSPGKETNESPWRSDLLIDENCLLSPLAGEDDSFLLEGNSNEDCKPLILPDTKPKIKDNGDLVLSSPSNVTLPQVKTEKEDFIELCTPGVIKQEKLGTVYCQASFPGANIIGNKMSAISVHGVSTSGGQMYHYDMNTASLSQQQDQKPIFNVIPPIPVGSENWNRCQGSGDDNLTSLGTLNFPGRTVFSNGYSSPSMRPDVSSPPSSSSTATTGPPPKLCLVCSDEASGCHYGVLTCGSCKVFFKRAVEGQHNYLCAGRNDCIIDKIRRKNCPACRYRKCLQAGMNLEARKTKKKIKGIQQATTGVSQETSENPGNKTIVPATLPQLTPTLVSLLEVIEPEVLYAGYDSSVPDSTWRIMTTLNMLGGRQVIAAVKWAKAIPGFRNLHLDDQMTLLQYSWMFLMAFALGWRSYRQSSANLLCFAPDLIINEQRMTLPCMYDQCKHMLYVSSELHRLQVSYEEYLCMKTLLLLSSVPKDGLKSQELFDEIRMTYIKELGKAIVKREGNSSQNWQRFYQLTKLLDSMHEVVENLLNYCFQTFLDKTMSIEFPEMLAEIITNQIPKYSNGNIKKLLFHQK
Method: NIH3T3 cells were cotransfected with pcRDn-NLS and pcDRc-GR, and different concentrations of corticosterone were added to each microtiter well. The cells were harvested, and their lysates were mixed with a coelenterazine solution.

[6] = target: T2, glucocorticoid receptor (GR); experiment: Confirmation of GR localization in NIH3T3 cells transfected with pcDRc-GR; assay type: cell-based; details: addition of corticosterone, FIG. 14
Method: Plasmid pcDRc-AR in Examples 1 to 6 was cleaved with restriction endonucleases NotI and XhoI to remove the cDNA encoding AR, and a cDNA encoding glucocorticoid receptor (GR) was inserted at NotI and XhoI sites (FIG. 13). The same experiment as in case of AR was performed using the thus-constructed plasmid.

[7] = tested on: Signal Transducer and Activator of Transcription 3 (STAT-3); experiment: Confirmation of STAT-3 localization in HEK293 cells transfected with pcDRc-STAT3; assay type: cell-based; details: addition of OSM, FIG. 21
From the text: Plasmid pcDRc-AR in Examples 1 to 6 was cleaved with restriction endonucleases NotI and XhoI to remove the cDNA encoding AR, and a cDNA encoding STAT-3 was inserted at NotI and XhoI sites thereby constructing pcDRc-STAT-3 (FIG. 20).

[8] = tested on: Signal Transducer and Activator of Transcription 3 (STAT-3); experiment: Quantification of STAT-3 translocation into the nucleus (reconstituted RLuc luminescence, HEK293 cells); assay type: cell-based; details: different concentrations of OSM
Method: HEK293 cells were cotransfected with pcRDn-NLS and pcDRc-STAT3, and different concentrations of OSM were added to each microtiter well. The cells were harvested, and their lysates were mixed with a coelenterazine solution.

Molecule: CC(C)CCC[C@@H](C)[C@H]1CC[C@H]2[C@@H]3CC=C4C[C@@H](O)CC[C@]4(C)[C@H]3CC[C@]12C [cholesterol]
- localization of the probe with SREBP-2 [1]: predominantly in cytoplasmic
- luminescence signals of reconstituted RLuc (dose-response) [2]: increased with decreasing the concentration of cholesterol

Molecule: CC12CC1(C)C(=O)N(c1cc(Cl)cc(Cl)c1)C2=O (stereo not shown) [procymidone]
- inhibition of DHT-induced luminescence / nuclear translocation of AR (androgen receptor (AR) [3]; in the presence of DHT, FIG. 5c): inhibit the DHT-induced strong luminescence
- increase in observed luminescence intensity (AR translocation, compound alone) (androgen receptor (AR) [3]; over the concentration range tested, FIG. 5b): did not induce any increase
- luminescence intensity on stimulation with DHT together with inhibitor (androgen receptor (AR) [4]): decrease in luminescence intensity

Molecule: C[C@]12CCC(=O)C=C1CC[C@@H]1[C@@H]2[C@@H](O)C[C@@]2(C)[C@H]1CC[C@]2(O)C(=O)CO [cortisol]
- induction of GR translocation into the nucleus ([5]; FIG. 15): induce the GR translocation into the nucleus

Molecule: C[C@]12C[C@H](O)[C@H]3[C@@H](CCC4=CC(=O)CC[C@@]43C)[C@@H]1CC[C@@H]2C(=O)CO [corticosterone]
- luminescence signals of reconstituted RLuc (dose-response) ([5]; different concentrations of corticosterone): increased with increasing the concentration of corticosterone
- localization of Probe I (GR) [6]: nuclear localization of Probe I

B1: oncostatin M (protein, UniProt P13725 26-221, looked up)
Oncostatin-M: AAIGSCSKEYRVLLGQLQKQTDLMQDTSRLLDPYIRIQGLDVPKLREHCRERPGAFPSEETLRGLGRRGFLQTLNATLGCVLHRLADLEQRLPKAQDLERSGLNIEDLEKLQMARPNILGLRNNIYCMAQLLDNSDTAEPTKAGRGASQPPTPTPASDAFQRKLEGCRFLHGYHRFMHSVGRVFSKWGESPNRSRR
notes: oncostatin M (OSM), a ligand
- localization of the probe with STAT3 [7]: nuclear localization of the probe
- luminescence signals of reconstituted RLuc (dose-response) [8]: increased with decreasing the concentration of cOSM
